In brackets after ≈: the same amount, converted by molar mass. Like-named read-outs stand apart in the source and are kept apart here. Numbered stars: 1 amine (or outer) side, 2 acyl side, 3 side chain; on linkers, the order of the positions; unused ones are H or OH. Square brackets hold non-standard residues; d marks the D form. Peptide text beside a SMILES is read from it. X26 = C[C@H](C/C=C/c1cccc(N2CCOCC2)n1)[C@@H](O)[C@H](C(=O)[*:2])N(C)[*:1]; X10 = Cc1cccc(/C=C/C[C@@H](C)[C@@H](O)[C@H](C(=O)[*:2])N(C)[*:1])n1; X21 = C[C@H](CCN(C)C1CCOCC1)[C@@H](O)[C@H](C(=O)[*:2])N(C)[*:1]; X23 = COC1CN(CC[C@@H](C)[C@@H](O)[C@H](C(=O)[*:2])N(C)[*:1])C1; X14 = C[C@H](CCCc1ncccn1)[C@@H](O)[C@H](C(=O)[*:2])N(C)[*:1]; X31 = COCCN(C)CC[C@@H](C)[C@@H](O)[C@H](C(=O)[*:2])N(C)[*:1]; X16 = C[C@H](CCN1CCOCC1)[C@@H](O)[C@H](C(=O)[*:2])N(C)[*:1]; d(aThr) = C[C@@H](O)[C@@H](N)C(=O)O; NMeL = CN[C@@H](CC(C)C)C(=O)O; dNMeL = CN[C@H](CC(C)C)C(=O)O; dNMeV = CN[C@@H](C(=O)O)C(C)C; Hiv = CC(C)[C@H](O)C(=O)O; dAbu = CC[C@@H](N)C(=O)O; Sar = CNCC(=O)O

In data set [1] the target is T1, cyclophilin A (Cyp A) (Homo sapiens, UniProt P62937).
T1 construct: purchased Sigma C3805
Nature of the data set: Protease-free PPIase assay, cyclophilin A. The class given is biochemical. On the procedure:
(§1) The protease-free PPIase assay measures the rate of cis to trans conversion of a peptide substrate catalyzed by the enzymes cyclophilin A and cyclophilin D. Addition of a cyclophilin inhibitor (e.g., a test compound) slows the catalyzed rate and a Ki value is obtained. […] 35 mM HEPES pH 7.8, filtered through a 0.2 μm filter. 50 μM DTT was added prior to use each day and then the buffer was stored on ice. Human recombinant cyclophilin A (Cyp A) (Sigma C3805) enzyme was diluted to 1 μM with enzyme dilution buffer (20 mM HEPES pH 7.8, 40% glycerol, 50 μM DTT and 1 μM BSA) and stored at -20° C. Succinimide-[…]) (from Bachem AG, L-1400), 20 mg/ml prepared in 0.5 M LiCl in trifluoroethanol. All readings were taken with an Agilent 8453 Spectrophotometer which consists of a cuvette holder, stirrer and chiller to maintain a stirred cuvette temperature of 10.0±0.1° C. The temperature is monitored by the use of temperature probe. […] The inhibitor was diluted in 100% DMSO, and then added to the assay to a maximum final concentration of 0.5% DMSO in the assay. A blank spectrum was obtained, then 3 μL of enzyme was added (2 nM final concentration) and then 3 μL substrate (60 μM final concentration) added. The absorbance was measured at 330 nm for 300 s or 500 s for blank runs (NOTE: the substrate must be added in one quick injection and the measurements started immediately to minimize mixing errors). A first order rate equation was fitted to the absorbance data, for each concentration of inhibitor, to obtain the rate constant (the first 10 to 15 seconds were excluded as mixing causes errors in this portion of curve). The catalytic rate was calculated from the enzymatic rate constant minus the background rate constant. An exponential curve was generated using the catalytic rate constants versus the inhibitor concentration to obtain the Ki value for the inhibitor. The Ki value is indicative of the binding affinity between the test compound and cyclophilin A or cyclophilin D.

The target of data set [2] is cyclophilin D (Cyp D) (Homo sapiens, UniProt P30405). Nature of the data set: Protease-free PPIase assay, cyclophilin D. The data set is classed as biochemical. On the procedure: as §1, with “ice.” for “ice. Human recombinant cyclophilin A (Cyp A) (Sigma C3805) enzyme was diluted to 1 μM with enzyme dilution buffer (20 mM HEPES pH 7.8, 40% glycerol, 50 μM DTT and 1 μM BSA) and stored at -20° C.”

A short description of data set [3]: Water solubility assay (pH 7.8 buffer). The data set is classed as physicochemical. On the procedure:
***Water Solubility Assay (Measured in pH 7.8 Buffer)
The onset of precipitation, if it occurred, was detected by an increase in absorbance at 650 nm.
Assay Buffer: 35 mM HEPES pH 7.8
Stock solutions of Control and Test Compounds: 10 mM in 100% DMSO
10 mM stock solutions of control and test compounds were prepared in 100% DMSO. A series of dilutions were prepared from the stock in DMSO so that the final concentrations in the assay were 0, 3.33, 10, 25, 50, 75 and 100 μM and DMSO was limited to 1%.
Assay buffer (247.5 μl) was placed into flat bottomed transparent 96-well plate. For blank samples DMSO (2.5 μl) was added. For test and control samples 2.5 μl of the appropriate DMSO dilution stocks were added to the appropriate well. All test and control compounds were performed in triplicate.
The plates were sealed with adhesive plate seal and shaken at 250 rpm at 25° C. for 18 h on a plate shaker.
After incubation the plate seals were taken off and any bubbles observed in wells removed. The plates were read on a SpectraMaxM5 with a 5 s pre-shake at 650 nm.
Data files were transferred to the appropriate worksheet and the solubility range of the compounds was calculated from the data.
The values shown in the tables indicate the concentration in μM (micromolar) at which the compound remains in solution.

T1 sequence (P62937 whole entry): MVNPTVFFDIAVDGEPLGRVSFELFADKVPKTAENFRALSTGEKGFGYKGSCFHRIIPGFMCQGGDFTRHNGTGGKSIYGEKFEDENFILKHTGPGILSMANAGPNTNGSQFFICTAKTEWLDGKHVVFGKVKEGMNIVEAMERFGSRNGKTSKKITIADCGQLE
cyclophilin D (Cyp D), sequence (P30405 30-207): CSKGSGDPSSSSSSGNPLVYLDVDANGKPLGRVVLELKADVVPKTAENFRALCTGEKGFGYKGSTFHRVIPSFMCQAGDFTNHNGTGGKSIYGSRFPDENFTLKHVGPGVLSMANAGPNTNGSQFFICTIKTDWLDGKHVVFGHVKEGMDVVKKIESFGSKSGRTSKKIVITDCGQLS

One may read the Ki as a dissociation constant, usually derived from enzyme kinetics or from competition with a known ligand. Broadly, the solubility is how much of the substance goes into solution per volume. On to `COCCN(C)CC[C@@H](C)[C@@H](O)[C@@H]1C(=O)N[C@H]([C@@H](C)O)C(=O)N(C)CC(=O)N(C)[C@@H](CC(C)C)C(=O)N[C@H](CC(C)C)C(=O)N(C)[C@H](CC(C)C)C(=O)N[C@H](C)C(=O)O[C@@H](C(C)C)C(=O)N(C)[C@H](CC(C)C)C(=O)N[C@H](CC(C)C)C(=O)N(C)[C@H](C(C)C)C(=O)N1C` [Example 10, cyclo-{(3R,4R,5S)-4-(hydroxy)-3-methyl-5-(methylamino)-1-N-[(2-methoxy-ethyl)-methyl-amino]-hexanoic acid-Thr-Sar-MeLeu-Leu-MeLeu-Ala-D-Hiv-MeLeu-Leu-MeVal}] (cyclo([Hiv][dNMeL][dL][dNMeV][X31][d(aThr)][Sar][NMeL][dL][dNMeL][dA])), for which the Ki in data set [1] was in the range of 0.025 to 0.1 µM; in data set [2], 0.001 to 0.025 µM. This molecule returned a solubility at 18 h in data set [3] (pH 7.8) above 100 µM.

Regarding `COC1CN(CC[C@@H](C)[C@@H](O)[C@@H]2C(=O)N[C@H]([C@@H](C)O)C(=O)N(C)CC(=O)N(C)[C@@H](CC(C)C)C(=O)N[C@H](CC(C)C)C(=O)N(C)[C@H](CC(C)C)C(=O)N[C@H](C)C(=O)O[C@@H](C(C)C)C(=O)N(C)[C@H](CC(C)C)C(=O)N[C@H](CC(C)C)C(=O)N(C)[C@H](C(C)C)C(=O)N2C)C1` [Example 11, cyclo-{(3R,4R,5S)-4-(hydroxy)-3-methyl-5-(methylamino)-1-N-(3-methoxy-azetidinyl)-hexanoic acid-Thr-Sar-MeLeu-Leu-MeLeu-Ala-D-Hiv-MeLeu-Leu-MeVal}] (cyclo([Hiv][dNMeL][dL][dNMeV][X23][d(aThr)][Sar][NMeL][dL][dNMeL][dA])), the Ki in data set [1] and in data set [2] was 0.001 to 0.025 µM each time. In data set [3] (pH 7.8), the solubility at 18 h was above 100 µM.

As for `CC(C)C[C@@H]1C(=O)N[C@H](CC(C)C)C(=O)N(C)[C@H](C(C)C)C(=O)N(C)[C@H]([C@H](O)[C@H](C)CCN(C)C2CCOCC2)C(=O)N[C@H]([C@@H](C)O)C(=O)N(C)CC(=O)N(C)[C@@H](CC(C)C)C(=O)N[C@H](CC(C)C)C(=O)N(C)[C@H](CC(C)C)C(=O)N[C@H](C)C(=O)O[C@@H](C(C)C)C(=O)N1C` [Example 12, cyclo-{(3R,4R,5S)-4-(hydroxy)-3-methyl-5-(methylamino)-1-N-(methyl-(tetrahydro-pyran-4-yl)-amino)-hexanoic acid-Thr-Sar-MeLeu-Leu-MeLeu-Ala-D-Hiv-MeLeu-Leu-MeVal}] (cyclo([Hiv][dNMeL][dL][dNMeV][X21][d(aThr)][Sar][NMeL][dL][dNMeL][dA])), the values for the Ki in data set [1] and in data set [2] were 0.025 to 0.1 µM and 0.001 to 0.025 µM, respectively. In addition, the solubility at 18 h in data set [3] (pH 7.8) is above 100 µM.

For `CC[C@H]1NC(=O)[C@@H]([C@H](O)[C@H](C)CCN2CCOCC2)N(C)C(=O)[C@@H](C(C)C)N(C)C(=O)[C@@H](CC(C)C)NC(=O)[C@@H](CC(C)C)N(C)C(=O)[C@H](C(C)C)OC(=O)[C@@H](C)NC(=O)[C@@H](CC(C)C)N(C)C(=O)[C@@H](CC(C)C)NC(=O)[C@H](CC(C)C)N(C)C(=O)CN(C)C1=O` [Example 13, cyclo-[(3R,4R,5S)-4-(hydroxy)-3-methyl-5-(methylamino)-1-N-morpholino-hexanoic acid-Abu-Sar-MeLeu-Leu-MeLeu-Ala-D-Hiv-MeLeu-Leu-MeVal]] (cyclo([Hiv][dNMeL][dL][dNMeV][X16][dAbu][Sar][NMeL][dL][dNMeL][dA])), the Ki in data set [1] and in data set [2] was 0.001 to 0.025 µM in each case. The same molecule yielded a solubility at 18 h in data set [3] (pH 7.8) of 25 to 50 µM (≈ 32.3 to 64.5 µg/mL).

With `Cc1cccc(/C=C/C[C@@H](C)[C@@H](O)[C@@H]2C(=O)N[C@H]([C@@H](C)O)C(=O)N(C)CC(=O)N(C)[C@@H](CC(C)C)C(=O)N[C@H](CC(C)C)C(=O)N(C)[C@H](CC(C)C)C(=O)N[C@H](C)C(=O)O[C@@H](C(C)C)C(=O)N(C)[C@H](CC(C)C)C(=O)N[C@H](CC(C)C)C(=O)N(C)[C@H](C(C)C)C(=O)N2C)n1` [Example 14, cyclo-[(3R,4R,5S)-4-(hydroxy)-3-methyl-5-(methylamino)-1-(6-methyl-pyridin-2-yl)-hept-1-enoic acid-Thr-Sar-MeLeu-Leu-MeLeu-Ala-D-Hiv-MeLeu-Leu-MeVal]] (cyclo([Hiv][dNMeL][dL][dNMeV][X10][d(aThr)][Sar][NMeL][dL][dNMeL][dA])), the Ki in data set [1] and in data set [2] was 0.001 to 0.025 µM throughout. Further, the solubility at 18 h in data set [3] (pH 7.8) lay within 10 to 25 µM (≈ 13.2 to 33.1 µg/mL).

On to `CC(C)C[C@@H]1C(=O)N[C@H](CC(C)C)C(=O)N(C)[C@H](C(C)C)C(=O)N(C)[C@H]([C@H](O)[C@H](C)CCCc2ncccn2)C(=O)N[C@H]([C@@H](C)O)C(=O)N(C)CC(=O)N(C)[C@@H](CC(C)C)C(=O)N[C@H](CC(C)C)C(=O)N(C)[C@H](CC(C)C)C(=O)N[C@H](C)C(=O)O[C@@H](C(C)C)C(=O)N1C` [Example 16, cyclo-[(3R,4R,5S)-4-(hydroxy)-3-methyl-5-(methylamino)-1-(pyrimidin-2-yl)-heptanoic acid-Thr-Sar-MeLeu-Leu-MeLeu-Ala-D-Hiv-MeLeu-Leu-MeVal]] (cyclo([Hiv][dNMeL][dL][dNMeV][X14][d(aThr)][Sar][NMeL][dL][dNMeL][dA])), for which the Ki in data set [1] and in data set [2] was 0.001 to 0.025 µM each time. This molecule returned a solubility at 18 h in data set [3] (pH 7.8) of 25 to 50 µM (≈ 32.8 to 65.7 µg/mL).

Take `CC(C)C[C@@H]1C(=O)N[C@H](CC(C)C)C(=O)N(C)[C@H](C(C)C)C(=O)N(C)[C@H]([C@H](O)[C@H](C)C/C=C/c2cccc(N3CCOCC3)n2)C(=O)N[C@H]([C@@H](C)O)C(=O)N(C)CC(=O)N(C)[C@@H](CC(C)C)C(=O)N[C@H](CC(C)C)C(=O)N(C)[C@H](CC(C)C)C(=O)N[C@H](C)C(=O)O[C@@H](C(C)C)C(=O)N1C` [Example 18, cyclo-{(3R,4R,5S)-4-(hydroxy)-3-methyl-5-(methylamino)-1-(6-morpholin-4-yl-pyridin-2-yl)-hept-1-enoic acid-Thr-Sar-MeLeu-Leu-MeLeu-Ala-D-Hiv-MeLeu-Leu-MeVal}] (cyclo([Hiv][dNMeL][dL][dNMeV][X26][d(aThr)][Sar][NMeL][dL][dNMeL][dA])): the Ki in data set [1] (protease-free PPIase assay, class symbols, read-out: CypA Ki) lay within 0.001 to 0.025 µM; in data set [2] (protease-free PPIase assay, class symbols, read-out: CypD Ki), 0.001 to 0.025 µM. Also, in data set [3] (35 mM HEPES buffer, 35 mM HEPES pH 7.8, 1% DMSO, 25° C., 18 h, concentration at which compound remains in solution, read-out: Solubility), the solubility at 18 h was in the range of 10 to 25 µM (≈ 14 to 34.9 µg/mL).

The record behind these values is patent US9382295B2, “Cyclic depsipeptide compounds and their uses” (Cypralis Limited, priority 2012, dated 2016).
